From patent US5202315A, “Cephalosporin compounds” (Lucky, Ltd., priority 1989, dated 1993)
≈ marks a conversion by molar mass, not a printed value. Where two headings read alike, the source gives them in different places.

Assays:
Format in all cases: cell-based
[1] = system: Acinetobacter calcoaceticus ATCC 15473; test: Antibacterial activity, MIC; details: ATCC15473, ATCC 15473, agar two-fold dilution, 37° C., 20 hours, read-out: MIC
How it was run: (§1)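 Incubation at 37 °C for 20 h followed inoculation of 2 μl standard strain (10^7 CFU/ml) onto agar carrying the compound. Compound was incorporated into Mueller-Hinton agar as two-fold serial dilutions.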

[2] = system: Bacillus cereus ATCC 11778; test: Antibacterial activity, MIC; details: ATCC11778, ATCC 11778, agar two-fold dilution, 37° C., 20 hours, read-out: MIC
How it was run: as §1

[3] = system: Bacillus megaterium ATCC 9885; test: Antibacterial activity, MIC; details: Priestia megaterium, ATCC9885; ATCC 9885; agar two-fold dilution, 37° C., 20 hours; read-out: MIC
How it was run: as §1

[4] = system: Citrobacter freundii ATCC 8090; test: Antibacterial activity, MIC; details: ATCC8090, ATCC 8090, agar two-fold dilution, 37° C., 20 hours, read-out: MIC
How it was run: as §1

[5] = system: Enterobacter aerogenes ATCC 29751; test: Antibacterial activity, MIC; details: Klebsiella aerogenes, ATCC29751; ATCC 29751; agar two-fold dilution, 37° C., 20 hours; read-out: MIC
How it was run: as §1

[6] = system: Enterobacter cloacae ATCC 27508; test: Antibacterial activity, MIC; details: ATCC27508, ATCC 27508, agar two-fold dilution, 37° C., 20 hours, read-out: MIC
How it was run: as §1

[7] = system: Escherichia coli ATCC 10536; test: Antibacterial activity, MIC; details: ATCC10536, agar two-fold dilution, 37° C., 20 hours
How it was run: as §1

[8] = system: Escherichia coli ATCC 25922; test: Antibacterial activity, MIC; details: ATCC25922, agar two-fold dilution, 37° C., 20 hours
How it was run: as §1

[9] = system: Klebsiella pneumoniae ATCC 10031; test: Antibacterial activity, MIC; details: ATCC10031, ATCC 10031, agar two-fold dilution, 37° C., 20 hours, read-out: MIC
How it was run: as §1

[10] = system: Micrococcus luteus ATCC 9341; test: Antibacterial activity, MIC; details: ATCC9341, ATCC 9341, agar two-fold dilution, 37° C., 20 hours, read-out: MIC
How it was run: as §1

[11] = system: Morganella morganii ATCC 8076h; test: Antibacterial activity, MIC; details: ATCC8076H, agar two-fold dilution, 37° C., 20 hours
How it was run: as §1

[12] = system: Proteus mirabilis ATCC 25933; test: Antibacterial activity, MIC; details: ATCC25933, ATCC 25933, agar two-fold dilution, 37° C., 20 hours, read-out: MIC
How it was run: as §1

[13] = system: Proteus vulgaris ATCC 6059; test: Antibacterial activity, MIC; details: ATCC6059, ATCC 6059, agar two-fold dilution, 37° C., 20 hours, read-out: MIC
How it was run: as §1

[14] = system: Providencia rettgeri ATCC 9250; test: Antibacterial activity, MIC; details: ATCC9250, agar two-fold dilution, 37° C., 20 hours
How it was run: as §1

[15] = system: Pseudomonas aeruginosa ATCC 10145; test: Antibacterial activity, MIC; details: ATCC10145, ATCC 10145, agar two-fold dilution, 37° C., 20 hours, read-out: MIC
How it was run: as §1

[16] = system: Pseudomonas aeruginosa ATCC 25619; test: Antibacterial activity, MIC; details: ATCC25619, ATCC 25619, agar two-fold dilution, 37° C., 20 hours, read-out: MIC
How it was run: as §1

[17] = system: Pseudomonas aeruginosa ATCC 27853; test: Antibacterial activity, MIC; details: ATCC27853, ATCC 27853, agar two-fold dilution, 37° C., 20 hours, read-out: MIC
How it was run: as §1

[18] = system: Salmonella typhimurium ATCC 14028; test: Antibacterial activity, MIC; details: Salmonella enterica; ATCC 14028; agar two-fold dilution, 37° C., 20 hours; read-out: MIC
How it was run: as §1

[19] = system: Serratia marcescens ATCC 27117; test: Antibacterial activity, MIC; details: ATCC27117, ATCC 27117, agar two-fold dilution, 37° C., 20 hours, read-out: MIC
How it was run: as §1

[20] = system: Shigella flexneri ATCC 11836; test: Antibacterial activity, MIC; details: ATCC11836, agar two-fold dilution, 37° C., 20 hours
How it was run: as §1

[21] = system: Shigella sonnei ATCC 11060; test: Antibacterial activity, MIC; details: ATCC11060, ATCC 11060, agar two-fold dilution, 37° C., 20 hours, read-out: MIC
How it was run: as §1

[22] = system: Staphylococcus aureus ATCC 10537; test: Antibacterial activity, MIC; details: ATCC10537, ATCC 10537, agar two-fold dilution, 37° C., 20 hours, read-out: MIC
How it was run: as §1

[23] = system: Staphylococcus aureus ATCC 6538p; test: Antibacterial activity, MIC; details: ATCC6538P, ATCC 6538p, agar two-fold dilution, 37° C., 20 hours, read-out: MIC
How it was run: as §1

[24] = system: Staphylococcus epidermidis ATCC 12228; test: Antibacterial activity, MIC; details: ATCC12228, ATCC 12228, agar two-fold dilution, 37° C., 20 hours, read-out: MIC
How it was run: as §1

[25] = system: Streptococcus faecalis ATCC 29212; test: Antibacterial activity, MIC; details: Enterococcus faecalis, ATCC29212; ATCC 29212; agar two-fold dilution, 37° C., 20 hours; read-out: MIC
How it was run: as §1

Escherichia coli = test: Antibacterial activity against clinically isolated strains, MIC; details: 38 clinical isolates, broth microdilution test
Klebsiella pneumoniae = test: as above; details: 10 clinical isolates, broth microdilution test; for MIC90: read-out: MIC 90%
[26] = system: Staphylococcus aureus methicillin susceptible; test: as above; details: methicillin susceptible, 42 clinical isolates, broth microdilution test; for MIC90: read-out: MIC 90%
[27] = system: Staphylococcus aureus methicillin resistant; test: as above; details: methicillin resistant, 7 clinical isolates, broth microdilution test; for MIC90: read-out: MIC 90%
Pseudomonas aeruginosa = test: as above
[28] = 54 clinical isolates, broth microdilution test

Structure (SMILES) | MIC [1] | MIC [2] | MIC [3] | MIC [4] | MIC [5] | MIC [6] | MIC [7] | MIC [8] | MIC [9] | MIC [10] | MIC [11] | MIC [12] | MIC [13] | MIC [14] | MIC [15] | MIC [16] | MIC [17] | MIC [18] | MIC [19] | MIC [20] | further results
C#CCO/N=C(\C(=O)NC1C(=O)N2C(C(=O)[O-])=C(CSc3nc(N)cc(N)[n+]3CC)CSC12)c1csc(N)n1 (stereo not shown) [Compound I-47] | 4 µg/mL (≈ 6.78 µM) | 8 µg/mL (≈ 13.6 µM) | 0.13 µg/mL (≈ 0.22 µM) | 0.13 µg/mL (≈ 0.22 µM) | 0.5 µg/mL (≈ 0.848 µM) | 0.016 µg/mL (≈ 0.0271 µM) | 0.13 µg/mL (≈ 0.22 µM) | 0.13 µg/mL (≈ 0.22 µM) | ≤ 0.008 µg/mL | ≤ 0.008 µg/mL | ≤ 0.008 µg/mL | 0.13 µg/mL (≈ 0.22 µM) | 0.13 µg/mL (≈ 0.22 µM) | ≤ 0.008 µg/mL | 8 µg/mL (≈ 13.6 µM) | 1 µg/mL (≈ 1.7 µM) | 2 µg/mL (≈ 3.39 µM) | 0.25 µg/mL (≈ 0.424 µM) | 0.13 µg/mL (≈ 0.22 µM) | 0.016 µg/mL (≈ 0.0271 µM) | MIC [21]: 0.13 µg/mL (≈ 0.22 µM); MIC [22]: 0.13 µg/mL (≈ 0.22 µM); MIC [23]: 0.25 µg/mL (≈ 0.424 µM); MIC [24]: 0.031 µg/mL (≈ 0.0526 µM); MIC [25]: 32 µg/mL (≈ 54.3 µM); MIC50 (Escherichia coli): 0.063 µg/mL (≈ 0.107 µM); MIC90 (Escherichia coli): 0.25 µg/mL (≈ 0.424 µM); MIC50 (Klebsiella pneumoniae): 0.25 µg/mL (≈ 0.424 µM); MIC90 (Klebsiella pneumoniae): 0.25 µg/mL (≈ 0.424 µM); MIC50 [26]: 0.25 µg/mL (≈ 0.424 µM); MIC90 [26]: 0.25 µg/mL (≈ 0.424 µM); MIC50 [27]: 64 µg/mL (≈ 109 µM); MIC90 [27]: 64 µg/mL (≈ 109 µM); MIC90 (Pseudomonas aeruginosa): 16 µg/mL (≈ 27.1 µM); MIC50 (Pseudomonas aeruginosa; [28]): 4 µg/mL (≈ 6.78 µM)
CCO/N=C(\C(=O)NC1C(=O)N2C(C(=O)[O-])=C(CSc3nc(N)cc(N)[n+]3N)CSC12)c1nsc(N)n1 (stereo not shown) [Compound I-17] | 2 µg/mL (≈ 3.52 µM) | 8 µg/mL (≈ 14.1 µM) | 0.13 µg/mL (≈ 0.229 µM) | 0.063 µg/mL (≈ 0.111 µM) | 0.25 µg/mL (≈ 0.44 µM) | 0.016 µg/mL (≈ 0.0282 µM) | 0.13 µg/mL (≈ 0.229 µM) | 0.13 µg/mL (≈ 0.229 µM) | 0.016 µg/mL (≈ 0.0282 µM) | 0.016 µg/mL (≈ 0.0282 µM) | 0.016 µg/mL (≈ 0.0282 µM) | 0.5 µg/mL (≈ 0.881 µM) | 0.5 µg/mL (≈ 0.881 µM) | ≤ 0.008 µg/mL | 4 µg/mL (≈ 7.05 µM) | 0.5 µg/mL (≈ 0.881 µM) | 2 µg/mL (≈ 3.52 µM) | 0.5 µg/mL (≈ 0.881 µM) | 0.25 µg/mL (≈ 0.44 µM) | 0.031 µg/mL (≈ 0.0546 µM) | MIC [21]: 0.13 µg/mL (≈ 0.229 µM); MIC [22]: 0.5 µg/mL (≈ 0.881 µM); MIC [23]: 0.5 µg/mL (≈ 0.881 µM); MIC [24]: 0.25 µg/mL (≈ 0.44 µM); MIC [25]: 32 µg/mL (≈ 56.4 µM); MIC50 (Escherichia coli): 0.13 µg/mL (≈ 0.229 µM); MIC90 (Escherichia coli): 0.25 µg/mL (≈ 0.44 µM); MIC50 (Klebsiella pneumoniae): 0.25 µg/mL (≈ 0.44 µM); MIC90 (Klebsiella pneumoniae): 0.25 µg/mL (≈ 0.44 µM); MIC50 [26]: 0.5 µg/mL (≈ 0.881 µM); MIC90 [26]: 1 µg/mL (≈ 1.76 µM); MIC50 [27]: 16 µg/mL (≈ 28.2 µM); MIC90 [27]: 64 µg/mL (≈ 113 µM); MIC50 (Pseudomonas aeruginosa; [28]): 4 µg/mL (≈ 7.05 µM); MIC90 (Pseudomonas aeruginosa; 54 clinical isolates, broth microdilution test, read-out: MIC 90%): 8 µg/mL (≈ 14.1 µM)
